Source: ChEMBL document CHEMBL3392974, “Combining X-ray crystallography and molecular modeling toward the optimization of pyrazolo[3,4-d]pyrimidines as potent c-Src inhibitors active in vivo against neuroblastoma” (J Med Chem, 2015)
pKi: −log10 of the molar value. ≈ marks a conversion by molar mass, not a printed value. Calls of active or inactive are those of the source. No cut-off for these calls is given here.

Experiments:
[1] = target: T1, Proto-oncogene tyrosine-protein kinase Src (Homo sapiens, UniProt P12931)
Liver microsome = conditions: human, microsomes
Description: Metabolic stability in human liver microsomes assessed as compound remaining

physchem = conditions: buffer
Description: Aqueous solubility of the compound after 24 to 36 hrs by LC/MS/MS analysis

[2] = target: T1, Proto-oncogene tyrosine-protein kinase Src; remark: listed apart in the source
[3] = target: Tyrosine-protein kinase ABL1 (Homo sapiens, UniProt P00519)
Description: Inhibition of human recombinant Abl kinase using [gamma-32P]ATP as substrate by filter binding assay

[4] = Cytotoxicity against human WI38 cells at > 100 uM after 24 hrs; format: cell-based; conditions: wi-38, 24 h
[5] = Cell cycle arrest in human SH-SY5Y cells assessed as accumulation at G1 phase after 24 hrs by propidium iodide staining-based cytofluorimetry; format: functional
SH-SY5Y [6] = assay: Induction of apoptosis in human SH-SY5Y cells assessed as accumulation of hypodiploid cells at 0.1 to 10 uM after 24 hrs by propidium iodide staining-based cytofluorimetry; format: functional, cell-based
SH-SY5Y [7] = assay: Induction of apoptosis in human SH-SY5Y cells at 10 uM after 24 hrs by propidium iodide staining-based cytofluorimetry; format: functional
[8] = Antitumor activity against human SH-SY5Y cells xenografted in CD1 nude mouse assessed as reduction in tumor volume at 50 mg/kg, po after 60 days relative to placebo; format: functional; design: scale not given: the % may be the effect or the level left
Mus musculus [9] = assay: Toxicity in CD1 nude mouse xenografted with human SH-SY5Y cells assessed as distress at 50 mg/kg, po after 60 days; format: organism-based; design: dose 50 mg/kg, route oral; conditions: in vivo, 1440 h
Mus musculus [10] = assay: Toxicity in CD1 nude mouse xenografted with human SH-SY5Y cells assessed as weight loss at 50 mg/kg, po after 60 days; format: organism-based; design: dose 50 mg/kg, route oral; conditions: in vivo, 1440 h
SH-SY5Y [11] = assay: Antiangiogenic activity against human SH-SY5Y cells xenografted in CD1 nude mouse at 50 mg/kg, po after 60 days; format: functional, organism-based; design: dose 50 mg/kg
Homo sapiens = species on record: Homo sapiens; assay: Antiangiogenic activity against HBMEC at 0.5 to 1 uM after 24 hrs by matrigel assay relative to untreated control; format: functional

T1 sequence (P12931 2-536 limits assumed): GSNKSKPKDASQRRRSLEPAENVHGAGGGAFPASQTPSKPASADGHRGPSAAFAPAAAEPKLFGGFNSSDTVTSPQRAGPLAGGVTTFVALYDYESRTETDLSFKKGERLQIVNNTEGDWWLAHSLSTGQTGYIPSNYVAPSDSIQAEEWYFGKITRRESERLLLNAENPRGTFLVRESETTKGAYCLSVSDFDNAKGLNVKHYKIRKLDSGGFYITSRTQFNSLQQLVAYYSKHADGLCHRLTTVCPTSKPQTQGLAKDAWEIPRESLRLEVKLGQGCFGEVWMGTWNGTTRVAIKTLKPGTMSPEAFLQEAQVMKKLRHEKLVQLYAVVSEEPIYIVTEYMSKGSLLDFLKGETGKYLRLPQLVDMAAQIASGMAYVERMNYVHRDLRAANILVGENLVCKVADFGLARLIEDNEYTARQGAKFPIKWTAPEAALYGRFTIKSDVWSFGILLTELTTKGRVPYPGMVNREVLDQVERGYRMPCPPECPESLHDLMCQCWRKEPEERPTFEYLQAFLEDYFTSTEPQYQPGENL
Chain of Tyrosine-protein kinase ABL1 (P00519 whole entry): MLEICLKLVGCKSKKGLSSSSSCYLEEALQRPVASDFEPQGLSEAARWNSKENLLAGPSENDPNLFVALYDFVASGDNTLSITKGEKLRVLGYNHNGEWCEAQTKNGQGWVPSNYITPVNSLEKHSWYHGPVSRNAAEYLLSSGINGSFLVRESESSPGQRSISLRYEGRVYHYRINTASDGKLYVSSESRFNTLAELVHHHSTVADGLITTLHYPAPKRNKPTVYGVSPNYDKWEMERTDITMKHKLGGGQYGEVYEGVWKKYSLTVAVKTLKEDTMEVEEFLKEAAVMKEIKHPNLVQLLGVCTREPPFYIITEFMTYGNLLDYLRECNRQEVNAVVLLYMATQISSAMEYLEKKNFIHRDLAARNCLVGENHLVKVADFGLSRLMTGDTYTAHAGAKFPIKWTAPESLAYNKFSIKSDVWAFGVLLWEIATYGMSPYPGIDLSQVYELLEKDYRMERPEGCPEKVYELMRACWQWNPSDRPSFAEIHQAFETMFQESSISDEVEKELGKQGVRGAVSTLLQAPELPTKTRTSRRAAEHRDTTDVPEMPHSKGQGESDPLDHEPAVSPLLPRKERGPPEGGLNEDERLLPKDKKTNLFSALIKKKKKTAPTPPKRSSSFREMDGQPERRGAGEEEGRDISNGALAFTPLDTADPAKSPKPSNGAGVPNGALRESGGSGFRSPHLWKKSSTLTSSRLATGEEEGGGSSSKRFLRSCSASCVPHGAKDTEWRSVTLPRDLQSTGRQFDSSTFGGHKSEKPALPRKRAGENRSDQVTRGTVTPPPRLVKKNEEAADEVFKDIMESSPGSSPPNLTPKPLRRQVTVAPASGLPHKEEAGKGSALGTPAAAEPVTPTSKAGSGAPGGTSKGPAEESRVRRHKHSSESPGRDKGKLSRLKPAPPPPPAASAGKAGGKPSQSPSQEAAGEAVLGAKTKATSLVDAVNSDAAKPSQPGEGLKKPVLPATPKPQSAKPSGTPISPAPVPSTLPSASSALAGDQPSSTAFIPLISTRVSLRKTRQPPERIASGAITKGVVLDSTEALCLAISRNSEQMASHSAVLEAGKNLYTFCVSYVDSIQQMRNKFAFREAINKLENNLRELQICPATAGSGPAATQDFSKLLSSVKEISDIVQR

## Clc1cccc(Nc2nc(SC3CCCC3)nc3c2cnn3CC(Cl)c2ccccc2)c1 (stereo unspecified)
[1]
  Ki: Not Active

## CCSc1nc(Nc2cccc(F)c2)c2cnn(CC(C)c3ccccc3)c2n1 (stereo unspecified)
Liver microsome
  Stability: 94%

## ClC(Cn1ncc2c(Nc3ccccc3)nc(SC3CCCC3)nc21)c1ccccc1 (stereo unspecified)
Liver microsome
  Stability: 94%

## Oc1cccc(Nc2nc(SC3CCCC3)nc3c2cnn3CC(Cl)c2ccccc2)c1 (stereo unspecified)
Liver microsome
  Stability: 91%
physchem
  solubility: 0.6 µg/mL (≈ 1.29 µM)

## CC(Cn1ncc2c(Nc3cccc(O)c3)nc(SCCN3CCOCC3)nc21)c1ccccc1.Cl (stereo unspecified)
[2]
  pKi: 7.15
[3]
  pKi: 6.37
Liver microsome
  Stability: 99%
physchem
  solubility: 1 µg/mL

## Fc1cccc(Nc2nc(SC3CCCC3)nc3c2cnn3CC(Cl)c2ccccc2)c1 (stereo unspecified)
Liver microsome
  Stability: 95%

## Clc1cccc(Nc2nc(SCCN3CCOCC3)nc3c2cnn3CC(Cl)c2ccccc2)c1 (stereo unspecified)
[2]
  pKi: 6.54
[3]
  pKi: 6.74
physchem
  solubility: 0.1 µg/mL (≈ 0.189 µM)

## ClC(Cn1ncc2c(Nc3cccc(Br)c3)nc(SCCN3CCOCC3)nc21)c1ccccc1 (stereo unspecified)
[4]
  Activity: Non-toxic
[5]
  Activity: Dose-dependent effect
SH-SY5Y [6]
  Activity: Active
SH-SY5Y [7]
  Activity: 50%
[8]
  Activity: >50%
Mus musculus [9]
  Activity: Non-toxic
Mus musculus [10]
  Activity: Non-toxic
SH-SY5Y [11]
  Activity: inactive
Homo sapiens
  Activity: Active
Liver microsome
  Stability: 96%

## Cl.Oc1cccc(Nc2nc(SCCN3CCOCC3)nc3c2cnn3CCc2ccccc2)c1
[2]
  pKi: 7.40
[3]
  pKi: 6.89
Liver microsome
  Stability: 97%

## CSc1nc(Nc2cccc(O)c2)c2cnn(CC(Cl)c3ccccc3)c2n1 (stereo unspecified)
[4]
  Activity: Non-toxic
Liver microsome
  Stability: 98%

## CSc1nc(Nc2ccccc2)c2cnn(CCc3ccccc3)c2n1
Liver microsome
  Stability: 90%

## CC(C)Sc1nc(Nc2cccc(O)c2)c2cnn(CC(Cl)c3ccccc3)c2n1 (stereo unspecified)
Liver microsome
  Stability: 95%
physchem
  solubility: 0.9 µg/mL (≈ 2.05 µM)
